This note sets out measurements from patent US20250002492A1, “COMPOSITIONS OF FOLATE ABSORPTION INHIBITORS AND METHODS THEREOF” (THE TEXAS A&M UNIVERSITY SYSTEM, priority 2023, published 2025).

For orientation: inhibition means the change of the read-out against control, counted positive when it falls.

The assay has as its target T1, Folate Uptake Transporter (PCFT) in Caco2 cells (Homo sapiens, UniProt Q96NT5).
T1 construct: These cells express high levels of the PCFT/SLC46A1 receptor; host or cells: Caco-2
T1 sequence (Q96NT5 1-459): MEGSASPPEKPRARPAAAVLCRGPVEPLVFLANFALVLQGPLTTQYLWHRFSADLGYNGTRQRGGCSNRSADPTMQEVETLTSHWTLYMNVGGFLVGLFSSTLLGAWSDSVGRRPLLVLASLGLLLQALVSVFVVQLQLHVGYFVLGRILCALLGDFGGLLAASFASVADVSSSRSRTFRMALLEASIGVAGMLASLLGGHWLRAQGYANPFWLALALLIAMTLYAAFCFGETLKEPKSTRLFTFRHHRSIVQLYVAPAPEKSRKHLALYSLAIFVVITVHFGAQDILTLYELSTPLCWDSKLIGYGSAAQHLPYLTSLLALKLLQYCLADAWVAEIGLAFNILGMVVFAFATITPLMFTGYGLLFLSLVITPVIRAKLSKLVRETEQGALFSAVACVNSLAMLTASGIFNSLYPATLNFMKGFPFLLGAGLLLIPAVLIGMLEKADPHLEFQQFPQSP
As to the kind of experiment: Folate uptake transporter inhibition in Caco2 cell line ([3H]-folic acid uptake). The class given is cell-based. As to the method: Cell plates were prepared using Caco-2 cell culture medium consisting of Dulbecco's Modified Eagle's Medium (DMEM) with high glucose and L-glutamine supplemented with: 10% FBS, 1× penicillin-streptomycin mixture and 1×non-essential amino acids (NEAA) and medium was incubated at 37° C., 5% CO2 for 0.5 hour. Plates were prepared for cell seeding. Caco-2 cells from American Type Culture Collection at passage 44 were cultivated in T-75 flasks in a cell culture incubator set at 37° C., 5% CO2, 95% relative humidity. Cells reached 80-90% confluence before detaching and splitting. Cultivated cells in T-75 flasks were rinsed with 5 mL PBS and aspirated off. Then, 3 mL trypsin/EDTA was added, and cells were incubated at 37° C. for approximately 5 minutes or until the cells detached and floated. Trypsin/EDTA was inactivate by adding excess serum containing medium. Cell suspension was removed and transferred to a conical tube and cells were pelleted by centrifugation at 120×g for 5 minutes. Cells were resuspended in seeding medium at a density of 3×10^4 cells/well in 24-well plates. The plate was incubated for 8-10 days. The medium was replaced every other day, beginning no sooner than 48 hours after initial plating.
The transport buffer (HBSS with 10 mM MES, pH 5.5) was prepared by weighing 1.952 g of MES and 0.35 g sodium hydrogen carbonate and adding into 900 mL of pure water followed by sonication to dissolve the content. Following the transfer of 100 mL of 10×HBSS into the solution. The solution was placed on a stirrer, the pH was slowly adjusted with hydrochloric acid to 5.5, and then the solution was filtered to get HBSS solution (with 10 mM MES, pH 5.5).
The [3H]-folic acid (10 nM) substrate solution was prepared using [3H]-folic acid (1 mCi/ml) diluted with pH 5.5 buffer. Next, the [3H]-folic acid (10 nM) substrate solution+test inhibitor (X μM) and the [3H]-folic acid (10 nM) substrate solution+positive control inhibitor (pemetrexed, 50 μM) were prepared. For the solution without inhibitor, DMSO was diluted with corresponding substrate solution to get the working incubation solution.
The pre-incubation solution was prepared by adding the same final concentration of test compound (X μM) and the known inhibitor (pemetrexed, 50 μM) in pH 5.5 buffer. For the solution without inhibitor, DMSO diluted with in pH 5.5 buffer was used as the vehicle control.
When the 8-10 day Caco-2 cultured cells reached confluence and were differentiated, they were ready to be used for transport studies. The Caco-2 plate was removed from the incubator, and the medium was removed from the 24-well Plates. Next, cells were washed 3 times with 300 μL of pre-warmed pH 5.5 buffer. Then, 300 μL of pre-incubation solution was added into each well and the plate was placed at 37° C. for 30 minutes. The assay was performed in duplicate. After 30 minutes pre-incubation, the pre-incubation solution was aspirated, and 300 μL of pre-warmed working incubation solution was added to start the transporter assay. After 6 minutes incubation, cells were washed by quickly adding/aspirating 300 μL of ice-cold pH 5.5 buffer 4 times. The pH 5.5 buffer was removed and 300 μL of pure water was added into each well. Freeze-thaw in liquid nitrogen and 37° C. incubator was repeated for 3 times to lyse cells. After, centrifugation at 3,300 g was performed for 30 seconds. Next, 50 μL of supernatant was transferred to Isoplate-96 Microplate. 200 μL of scintillation fluid was added to the 50 μL sample and radioactivity was measured by liquid scintillation counting in a MicroBeta 2 scintillation counter for 1 min/sample.
A BCA Kit was used to determine the protein content for each well. Bovine serum albumin at 2, 1, 0.5, 0.25, 0.125, 0.0625, 0.0313, 0.0156, 0.00781 and 0.00391 mg/mL was prepared in Phosphate Buffer Saline (PBS, pH 7.4). 10 μL of supernatant was mixed from the previous step with the same volume of PBS. […]
In general terms: Caco-2 monolayers are a common model of the intestinal barrier.

In the case of `CC(=O)N1CCC(C(=O)N2CCN3C(=O)c4cc(-c5ccccc5)ccc4NC(=O)C3C2)CC1` (centres unmarked) [MPOL_B_1, 2-(1-acetylpiperidine-4-carbonyl)-8-phenyl-1,3,4,12a-tetrahydrobenzo[e]pyrazino[1,2-a][1,4]diazepine-6,12(2H,11H)-dione], the inhibition at 50 µM (Caco-2, pH 5.5, test conc. 50 μM, [3H]-folic acid 10 nM, 30 min pre-incubation, 6 min incubation, read-out: Percentage inhibition (%)) amounted to 42.3%. In addition, for the setting “Caco-2 cells, 50 μM, pH 5.5”, the “effect on folate transport / uptake” value is recorded as “inhibit folate uptake”.
